Experiments:
[1] = IV, SC and PO routes, rats
[2] = system: NV in replicon harboring cells (HG23 cells); assay: Cell-based assay: virus replication in NV replicon harboring cells (HG23 cells), qRT-PCR; parameters: species or system norovirus (NV); conditions: Table 1, ester prodrugs; HG23 cells, 48 h; read-out: EC50 (50% effective concentration in cell culture)
Procedure: The effects of each inhibitor on virus replication were examined against NV in the NV replicon harboring cells (HG23 cells). Briefly, confluent and semi-confluent HG23 cells were incubated with medium containing DMSO (<0.1%) or each compound (up to 200 uM) for 48 h. After the incubation, total RNA was extracted and viral genome was quantitated with real-time quantitative RT-PCR (qRT-PCR). The EC50 values were determined by GraphPadPrism software.

[3] = target: norovirus 3CL protease (NV 3CLpro) (Norovirus, UniProt Q83883); assay: FRET protease assay (3CL protease), enzyme inhibition; format: biochemical; conditions: Table 1, ester prodrugs; average of at least two determinations; read-out: IC50 (50% inhibitory concentration in the enzyme assay)
Procedure: FRET protease assays. The FRET protease assay (3CL protease) was performed by preparing stock solutions of the substrate (Edans-DFHLQ/GP-Dabcyl, SEQ ID NO:1) and inhibitor in DMSO and diluting into assay buffer which was comprised of 20 mM HEPES buffer, pH 8, containing NaCl (200 mM), 0.4 mM EDTA, glycerol (60%), and 6 mM dithiothreitol (DTT). The protease was mixed with serial dilutions of each compound up to 100 μM or with DMSO in 25 μL of assay buffer and incubated at 37° C. for 30 min, followed by the addition of 25 μL of assay buffer containing substrate. Fluorescence readings were obtained using an excitation wavelength of 360 nm and an emission wavelength of 460 nm on a fluorescence microplate reader (FLx800; Biotec, Winoosk, Vt.) 1 h following the addition of substrate. Relative fluorescence units (RFU) were determined by subtracting background values (substrate-containing well without protease) from the raw fluorescence values. The dose-dependent FRET inhibition curves were fitted with a variable slope by using GraphPad Prism software (GraphPad, La Jolla, Calif.) in order to determine the IC50 values of the inhibitors.

norovirus 3CL protease (NV 3CLpro), sequence (Q83883 1101-1281): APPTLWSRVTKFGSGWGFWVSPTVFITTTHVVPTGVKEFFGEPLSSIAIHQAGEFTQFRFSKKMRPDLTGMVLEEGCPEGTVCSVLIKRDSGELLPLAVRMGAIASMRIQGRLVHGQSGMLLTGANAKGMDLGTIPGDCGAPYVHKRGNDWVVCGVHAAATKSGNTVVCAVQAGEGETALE

SMILES	Conversion of prodrug to the aldehyde form (compound 25) in rat plasma [1]	EC50 [2] [nM]	IC50 [3] [nM]
CCCCCC(=O)OC([C@H](C[C@@H]1CCNC1=O)NC(=O)[C@H](CC1CCCCC1)NC(=O)OCc1cccc(Cl)c1)S(=O)(=O)O (stereo partly drawn) [Compound 11, (5S,8S)-1-(3-Chlorophenyl)-5-(cyclohexylmethyl)-3,6,11-trioxo-8-(((S)-2-oxopyrrolidin-3-yl)methyl)-2,10-dioxa-4,7-diazahexadecane-9-sulfonate]	most of compound 11 was converted to the aldehyde form	15	100
CCCCCCOC(=O)OC([C@H](CC1CCNC1=O)NC(=O)[C@H](CC1CCCCC1)NC(=O)OCc1cccc(Cl)c1)S(=O)(=O)O (stereo partly drawn) [Compound 17, (5 S, 8S)-1-(3-chlorophenyl)-5-(cyclohexylmethyl)-3,6,11-trioxo-8-((2-oxo-pyrrolidin-3-yl)methyl)-2,10,12-trioxa-4,7-diazaoctadecane-9-sulfonate]	–	25	800
CC(=O)OC([C@H](C[C@@H]1CCNC1=O)NC(=O)[C@H](CC1CCCCC1)NC(=O)OCc1cccc(Cl)c1)S(=O)(=O)O (stereo partly drawn) [Compound 9, (5 S, 8S)-1-(3-Chlorophenyl)-5-(cyclohexylmethyl)-3,6,11-trioxo-8-(((S)-2-oxopyrrolidin-3-yl)methyl)-2,10-dioxa-4,7-diazadodecane-9-sulfonate]	–	30	80
CCC(=O)OC([C@H](CC1CCNC1=O)NC(=O)[C@H](CC1CCCCC1)NC(=O)OCc1cccc(Cl)c1)S(=O)(=O)O (stereo partly drawn) [Compound 10, (5 S, 8S)-1-(3-chlorophenyl)-5-(cyclohexylmethyl)-3,6,11-trioxo-8-((2-oxopyrrolidin-3-yl)methyl)-2,10-dioxa-4,7-diazatridecane-9-sulfonate]	–	25	100
